Reference: patent publication US6497862B2, “Composition for inhibiting body odor and uses thereof” (Kabushiki Kaisha Hayashibara, priority 2000, dated 2002)

Assays:
[1] = Formation of 2-nonenal from 9-hexadecanoic acid by heating, GC of HSG (Experiment 3); conditions: 9-hexadecanoic acid + 100 mg test saccharide, heated at 105° C. for one hour; control 25.7
Procedure: (§1) One hundred milligrams of oleic acid as a fatty acid, 500 mg of cellulose powder, and 1.25 ml of 0.12 M phosphate buffer (pH 6.0) were placed in a 20-ml glass vial. To the glass vial were added 100 mg of either of crystalline trehalose hydrate, crystalline maltitol anhydride, crystalline sorbitol anhydride, crystalline sucrose anhydride, crystalline maltose anhydride, and crystalline neotrehalose hydride as test saccharides (throughout Experiments 1 to 6, these saccharides are designated as “trehalose”, “maltitol”, sorbitol”, “sucrose”, “maltose”, and “neotrehalose”, respectively), followed by sealing the glass vial with a butyl rubber. As a control system, there provided a glass vial, with no a test saccharide, which differed from the test glass vial on this point. These glass vials were heated at 105° C. for one hour, cooled to ambient temperature, and kept in an aluminum heat-block (abbreviated as “heat block, hereinafter”), which had been preheated to 80° C. After 5-minutes standing, two milliliters of a head space gas (abbreviated as “HSG”, hereinafter) were collected from each glass vial with a syringe.
(§2) The collected HSG was analyzed for content of volatile aldehydes on gas chromatography (abbreviated as “GC” hereinafter) using “GAS CHROMATOGRAPH GC-14A”, as a GC apparatus; “CAPILLARY COLUMN SUPELCO-WAX”, having 0.25 mm in inner diameter, 60 m in length, and 0.25 μm in thickness, commercialized by Supelco Inc., Tokyo, Japan, as a column for analysis; helium gas at a flow rate of one ml/min as a carrier gas, under temperature conditions of 250° C. for injecting a sample and of a column thermostatic bath temperature being kept at 80° C. for five minutes and then increased up to 240° C. at a rate of 5° C./min. As standard specimens, propanal, butanal, and hexanal as volatile aldehydes were used. Based on the peak area obtained from gas chromatography for the standard specimens and HSG samples, the content of respective volatile aldehydes in HSG was calculated.
The content of 2-nonenal in HSG was measured by GC similarly as in Experiment 1 except that 9-hexadecanoic acid or palmitoleic acid was used as a fatty acid and 2-nonenal, a volatile aldehyde, was used as a standard substance. The level of body-odor-like smell, particularly with respect to KAREI-SHU, in each sample was evaluated by panel test in accordance with the method in Experiment 1.

[2] = Panel test of smell, 9-hexadecanoic acid at 37° C. (Experiment 6); design: key: +++: the same or higher level of odor; ++: slightly lower level of odor; +: clearly lower level of odor than that of the control system; conditions: 37° C., 9,000 lux
Description: Upon the HSG samples, the level of a body-odor-like smell was examined on a panel test consisting of six professional panels; the panels directly smelled the samples from each glass vial and judged the level of the smells for each samples with test saccharides based on the following four ranks, i.e., the same or higher level of odor (+++), slightly lower level of odor (++), clearly lower level of odor (+), and odorless (−) as compared with the control system. Summing up the data from the panels, the samples tested were totally evaluated.
One hundred milligrams of 9-hexadecanoic acid as a fatty acid, 500 mg of a cellulose powder, and 1.25 ml of 0.12 M phosphate buffer (pH 6.0) were placed in a 20-ml glass vial. To the glass vial was added 100 mg of either of trehalose, maltitol and sucrose as a test saccharide, followed by sealing with a butyl rubber cap for use as a test system. As a control system, there provided a glass vial with no test saccharide that differed from the test systems only in this point. In both the test- and control-systems, they were respectively provided in doublet.
These glass vials were allowed to stand in a 37° C.-thermostatic-bath under the irradiation of 9,000 lux by a fluorescent lamp. At 3-days of standing, one of each pair of the vials containing the same composition, and 7-days of standing, the other vial of each resting pair of the vials were transferred to a heat block, which had been preheated to 80° C. and then kept therein for five minutes, followed by analyzing the content of 2-nonenal in HSG in each vial by GC similarly as in Experiment 2. After the collection of HSG, the smell from glass vials was evaluated by panel test in accordance with the method in Experiment 2.

[3] = Formation of volatile aldehydes from oleic acid by heating, GC analysis of head space gas (Experiment 1); conditions: oleic acid 100 mg + 100 mg test saccharide, heated at 105° C. for one hour; for Content in HSG, Hexanal: control 0.08; for Content in HSG, Butanal: control 1.04; for Content in HSG, Propanal: control 9.41
Procedure: as §1, §2

[4] = Dispersion of 2-nonenal, GC of HSG (Experiment 4); conditions: 10 mg 2-nonenal + 100 mg test saccharide, 80° C. 5 min (dispersion test); control 8.67
Procedure: Ten milligrams of 2-nonenal, 500 mg of a cellulose powder, and 1.25 ml of 0.12 M phosphate buffer (pH 6.0) were placed in a 20-ml glass vial. To the glass vial was added 100 mg of either of trehalose, maltitol and sucrose as a test saccharide, followed by sealing with a butyl rubber cap. As a control system, there provided a glass vial with no test saccharide that differed from the test systems only in this point. These glass vials were kept in a heat block, preheated to 80° C. After 5-min standing, the glass vials were sampled by two milliliters of HSG with a gas syringe. The content of 2-nonenal in the sampled HSG was measured by GC in accordance with the method in Experiment 2.

SMILES | Content of 2-nonenal in HSG [1] | Evaluation of panel test ([2]; 7-days of standing) | Content in HSG, Hexanal [3] | Content in HSG, Butanal [3] | Content in HSG, Propanal [3] | Content of 2-nonenal in HSG [4] | Evaluation of panel test ([2]; 3-days of standing)
OC[C@@H](O)[C@@H](O[C@H]1O[C@H](CO)[C@@H](O)[C@H](O)[C@H]1O)[C@H](O)[C@@H](O)CO [Maltitol, maltitol] | 6.17 µg/mL | + | 0.03 µg/mL | 1.02 µg/mL | 4.09 µg/mL | 8.27 µg/mL | –
OC[C@H]1O[C@@](CO)(O[C@H]2O[C@H](CO)[C@@H](O)[C@H](O)[C@H]2O)[C@@H](O)[C@@H]1O [Sucrose, sucrose] | 24.4 µg/mL | +++ | 0.07 µg/mL | 1.11 µg/mL | 9.98 µg/mL | 8.70 µg/mL | ++
OC[C@H]1O[C@H](O[C@H]2O[C@H](CO)[C@@H](O)[C@H](O)[C@H]2O)[C@H](O)[C@@H](O)[C@@H]1O [Trehalose, trehalose] | 4.10 µg/mL | + | 0.02 µg/mL | 0.19 µg/mL | 3.47 µg/mL | 8.60 µg/mL | –
